Test results published in patent US12637435B2, “Nitrogen-containing heterocyclic compound or salt thereof, use thereof, and intermediate thereof” (FUJIFILM Corporation, priority 2020, dated 2026).
pIC50: −log10 of the molar value.

How the values were obtained:
[1] = system: human myeloid leukemia cell line HL60; assay: Cell growth test, HL60 (CellTiter-Glo); type: cell-based; settings: HL-60, 72 h, HL60 cells, 3 days, CellTiter-Glo luminescence, read-out: Cell growth inhibitory effect (GI50)
Experimental: The cell growth test was carried out using the human myeloid leukemia cell line HL60 (available from ATCC, CRL-240). As a culture medium of HL60 cells, RPMI 1640 (available from FUJIFILM Wako Pure Chemical Corporation, 189-02025) supplemented with 10% fetal bovine serum (available from Thermo Fisher Scientific, Inc., 10437-028), and 1% penicillin-streptomycin (10,000 U/mL, available from Thermo Fisher Scientific, Inc., 15140-122) was used. HL60 cells were seeded on a 384-well plate (available from Corning Inc., 4588) at a cell density of 1×10^3 cells/20 μL/well. After culturing overnight, 5 μL of the test compound having a predetermined concentration was added, and 3 days later, 25 μL of CellTiter-Glo (registered trademark) Luminescent Cell Viability Assay (available from Promega Corporation, G7573) was added, and then the amount of luminescence was measured using an EnVision plate reader (available from PerkinElmer, Inc.). Since the amount of luminescence is proportional to the intracellular concentration of adenosine triphosphate (ATP), the amount of luminescence was used as an indicator of the number of viable cells. The growth inhibitory concentration for each test compound concentration was calculated by the following expression.
(§1) The growth inhibition rate at each test compound concentration was determined, and the 50% growth inhibitory concentration [GI50 (nmol/L)] was calculated using XLfit. Growth inhibition rate (%)=(amount of luminescence in test compound-added well)/(amount of luminescence in DMSO-added well)×100
The abbreviations in the table have the following meanings. • A: GI50 value<100 nmol/L • B: 100 nmol/L≤GI50 value<1,000 nmol/L • C: 1,000 nmol/L≤GI50 value

recombinant human DHODH = biological target: T1, recombinant human DHODH (Homo sapiens, UniProt Q02127); assay: DHODH enzyme reaction inhibition test (DCIP-coupled assay); type: biochemical; settings: recombinant human DHODH 0.175 μg/mL, DCIP absorbance 600 nm, 50 minutes, pH 8.0; read-out: Enzyme reaction inhibitory effect (IC50)
T1 construct: DHODH, 31-395aa, Human, His tag, E. coli, ATGP1615; His tag; purchased ATGen Co. Ltd. ATGP1615; host or cells: E. coli
Experimental: The DHODH enzyme assay was carried out with reference to “Benjamin Bader, Wolfgang Knecht, Markus Fries, and Monika Loffler, Expression, Purification, and Characterization of Histidine-Tagged Rat and Human Flavoenzyme Dihydroorotate Dehydrogenase, Protein Expression and Purification, 1998, 13, 414-422.”
The DHODH activity was evaluated using an enzyme assay system that is coupled with an assay in which a blue coloring agent 2,6-dichlorophenolindophenol (DCIP, available from MP Biomedicals, LLC, MP150118) is quenched. Purified recombinant human DHODH (DHODH, 31-395aa, Human, His tag, E. coli, ATGP1615) was purchased from ATGen Co. Ltd. The enzyme assay was carried out in a 384-well plate using a buffer solution containing 100 mmol/L Hepes (available from Dojindo Laboratories, 342-01375), 400 mmol/L NaCl (available from FUJIFILM Wako Pure Chemical Corporation, 191-01665), 10% Glycerol (available from FUJIFILM Wako Pure Chemical Corporation, 075-00616), 0.05% Triton X-100 (available from Sigma-Aldrich Co., LLC, T8787-100ML), 0.2 mmol/L Ubiquinone-10 (available from FUJIFILM Wako Pure Chemical Corporation, 216-00761), 0.1 mmol/L DHO (L-dihydroorotic acid, available from Sigma-Aldrich Co., LLC, D7128), 0.5% DMSO (dimethylsulfoxide, available from FUJIFILM Wako Pure Chemical Corporation, 047-29353), 0.175 μg/mL DHODH, and 0.12 mmol/L DCIP and having a pH adjusted to 8.0 by adding 5 mol/L potassium hydroxide (available from FUJIFILM Wako Pure Chemical Corporation, 168-21815). A test compound with a predetermined concentration was added using Biomek NX (available from Beckman Coulter Inc.), and the enzyme reaction was started by adding the substrate. The enzyme activity was assessed by measuring the decrease in DCIP absorbance (600 nm) for 50 minutes using an EnVision plate-reading spectrophotometer (available from PerkinElmer, Inc.).
as §1, with “enzyme reaction” for “growth”, “enzyme reaction inhibition” for “growth inhibitory”, “[IC50” for “[GI50”, “Enzyme reaction” for “Growth”
The abbreviations in the table have the following meanings. • A: IC50 value<10 nmol/L • B: 10 nmol/L≤IC50 value<100 nmol/L • C: 100 nmol/L≤IC50 value

T1 sequence (Q02127 31-395): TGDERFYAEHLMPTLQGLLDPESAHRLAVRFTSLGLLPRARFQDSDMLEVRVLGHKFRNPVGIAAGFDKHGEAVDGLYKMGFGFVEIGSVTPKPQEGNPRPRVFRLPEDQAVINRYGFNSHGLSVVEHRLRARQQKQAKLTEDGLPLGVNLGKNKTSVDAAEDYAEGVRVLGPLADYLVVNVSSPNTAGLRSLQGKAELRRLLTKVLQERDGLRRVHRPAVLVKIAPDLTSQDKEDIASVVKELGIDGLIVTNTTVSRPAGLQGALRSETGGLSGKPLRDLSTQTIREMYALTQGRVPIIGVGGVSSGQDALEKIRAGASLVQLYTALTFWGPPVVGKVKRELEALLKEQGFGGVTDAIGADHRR

CN(C)NC(=O)c1nc(C2CC2)cnc1Nc1cccc(C2=CCOCC2)c1OCC(F)(F)F [Example 1-13, 6-cyclopropyl-3-((3-(3,6-dihydro-2H-pyran-4-yl)-2-(2,2,2-trifluoroethoxy)phenyl)amino)-N,N-dimethylpyrazine-2-carbohydrazide]
GI50 [1]: ≥ 1000 nM | pIC50 (recombinant human DHODH): ≤ 7.00

CC(O)c1nc(C2CC2)cnc1Nc1cccc(C2=CCOCC2)c1OCC(F)(F)F (stereo not drawn) [Example 1-11, 1-(6-cyclopropyl-3-((3-(3,6-dihydro-2-H-pyran-4-yl)-2-(2,2,2-trifluoroethoxy)phenyl)amino)pyrazin-2-yl)ethan-1-ol]
GI50 [1]: ≥ 1000 nM | pIC50 (recombinant human DHODH): ≤ 7.00

C[C@H](Oc1c(Nc2ncc(C3CC3)nc2C(=O)NS(C)(=O)=O)cccc1C1=CCCOC1)C(F)(F)F [Example 3-62]
GI50 [1]: 100 to 1000 nM | pIC50 (recombinant human DHODH): 7.00 to 8.00

O=C(O)c1cc(C2CC2)ncc1Nc1cccc(C2=CCOCC2)c1OCC(F)(F)F [Example 2-16]
GI50 [1]: 100 to 1000 nM | pIC50 (recombinant human DHODH): > 8.00

FC(F)(F)COc1c(Nc2ncc(C3CC3)nc2-c2nnn[nH]2)cccc1C1=CCOCC1 [Example 1-6]
GI50 [1]: < 100 nM | pIC50 (recombinant human DHODH): > 8.00

CCOc1c(Nc2ncc(C3CC3)cc2C(=O)NS(C)(=O)=O)ccc(F)c1C1=CCOCC1 [Example 3-60]
GI50 [1]: < 100 nM | pIC50 (recombinant human DHODH): > 8.00

O=C(O)c1nc(C2CC2)cnc1Nc1cccc(-c2ccc(F)cc2)c1OCC(F)(F)F [Example 2-13]
GI50 [1]: < 100 nM | pIC50 (recombinant human DHODH): > 8.00

CS(=O)(=O)NC(=O)c1nc(C2CC2)cnc1Nc1cccc(-c2cccc(C#N)c2)c1OCC(F)(F)F [Example 3-45]
GI50 [1]: < 100 nM | pIC50 (recombinant human DHODH): > 8.00

CS(=O)(=O)NC(=O)c1cc(C2CC2)cnc1Nc1cccc(C2=CCOCC2)c1OCC(F)(F)F [Example 3-24]
GI50 [1]: < 100 nM | pIC50 (recombinant human DHODH): > 8.00

N#CNC(=O)c1nc(C2CC2)cnc1Nc1cccc(-c2ccc(C#N)cc2)c1OCC(F)(F)F [Example 3-33]
GI50 [1]: < 100 nM | pIC50 (recombinant human DHODH): > 8.00

O=C(O)c1cc(C2CC2)ccc1Nc1cncc(C2=CCOCC2)c1OCC(F)(F)F [Example 2-1]
GI50 [1]: 100 to 1000 nM | pIC50 (recombinant human DHODH): > 8.00

CS(=O)(=O)NC(=O)c1nc(C2CC2)cnc1Nc1cccc(-c2ccc(C#N)cc2)c1OCC(F)(F)F [Example 3-23]
GI50 [1]: < 100 nM | pIC50 (recombinant human DHODH): > 8.00

CCOc1c(C2=CCOCC2)ccc(F)c1Nc1ncc(C2CC2)cc1C(=O)O [Example 2-14]
GI50 [1]: 100 to 1000 nM | pIC50 (recombinant human DHODH): > 8.00

O=c1[nH]nc(-c2nc(C3CC3)cnc2Nc2cccc(C3=CCOCC3)c2OCC(F)(F)F)o1 [Example 1-9, 5-(6-cyclopropyl-3-((3-(3,6-dihydro-2H-pyran-4-yl)-2-(2,2,2-trifluoroethoxy)phenyl)amino)pyrazin-2-yl)-1,3,4-oxadiazol-2(3H)-one]
GI50 [1]: 100 to 1000 nM | pIC50 (recombinant human DHODH): 7.00 to 8.00

C[C@H](Oc1c(Nc2ccc(C3CC3)cc2C(=O)O)ccnc1C1=CCOCC1)C(F)(F)F [Example 1-18]
GI50 [1]: < 100 nM | pIC50 (recombinant human DHODH): > 8.00

O=C(O)c1cc(C2CC2)cnc1Nc1cc(F)cc(C2CCOCC2)c1OC(F)F [Example 2-3]
GI50 [1]: < 100 nM | pIC50 (recombinant human DHODH): > 8.00

NS(=O)(=O)NC(=O)c1nc(C2CC2)cnc1Nc1cc(F)cc(C2CCOCC2)c1OC(F)F [Example 3-53]
GI50 [1]: < 100 nM | pIC50 (recombinant human DHODH): > 8.00

OCc1nc(C2CC2)cnc1Nc1cccc(C2=CCOCC2)c1OCC(F)(F)F [Example 1-3]
GI50 [1]: 100 to 1000 nM | pIC50 (recombinant human DHODH): 7.00 to 8.00

CNNC(=O)c1nc(C2CC2)cnc1Nc1cccc(C2=CCOCC2)c1OCC(F)(F)F [Example 1-12, 6-cyclopropyl-3-((3-(3,6-dihydro-2H-pyran-4-yl)-2-(2,2,2-trifluoroethoxy)phenyl)amino)-N′-methylpyrazine-2-carbohydrazide]
GI50 [1]: 100 to 1000 nM | pIC50 (recombinant human DHODH): 7.00 to 8.00

Cc1cc(C#N)ccc1-c1cccc(Nc2ncc(C3CC3)nc2C(=O)NS(C)(=O)=O)c1OCC(F)(F)F [Example 3-16]
GI50 [1]: < 100 nM | pIC50 (recombinant human DHODH): > 8.00

CN(C)S(=O)(=O)NC(=O)c1nc(C2CC2)cnc1Nc1cccc(C2=CCOCC2)c1OCC(F)(F)F [Example 3-11]
GI50 [1]: ≥ 1000 nM | pIC50 (recombinant human DHODH): ≤ 7.00

CC(=O)c1nc(C2CC2)cnc1Nc1cccc(C2=CCOCC2)c1OCC(F)(F)F [Example 1-10, 1-(6-cyclopropyl-3-((3-(3,6-dihydro-2H-pyran-4-yl)-2-(2,2,2-trifluoroethoxy)phenyl)amino)pyrazin-2-yl)ethan-1-one]
GI50 [1]: 100 to 1000 nM | pIC50 (recombinant human DHODH): 7.00 to 8.00

NS(=O)(=O)NC(=O)c1nc(C2CC2)cnc1Nc1cccc(C2CCOCC2)c1OC(F)F [Example 3-50]
GI50 [1]: < 100 nM | pIC50 (recombinant human DHODH): > 8.00

CC(C)c1cnc(Nc2cccc(C3=CCOCC3)c2OCC(F)(F)F)c(C(=O)NS(C)(=O)=O)n1 [Example 3-65]
GI50 [1]: 100 to 1000 nM | pIC50 (recombinant human DHODH): > 8.00

N#Cc1ccc(-c2cccc(Nc3ncc(C4CC4)cc3C(=O)NS(N)(=O)=O)c2OCC(F)(F)F)cc1 [Example 3-37]
GI50 [1]: < 100 nM | pIC50 (recombinant human DHODH): > 8.00

CCc1c(Nc2ncc(C3CC3)cc2C(=O)NS(C)(=O)=O)cccc1C1CCOCC1 [Example 3-47]
GI50 [1]: 100 to 1000 nM | pIC50 (recombinant human DHODH): > 8.00

O=C(NS(=O)(=O)C1CC1)c1nc(C2CC2)cnc1Nc1cccc(C2=CCOCC2)c1OCC(F)(F)F [Example 3-21]
GI50 [1]: ≥ 1000 nM | pIC50 (recombinant human DHODH): 7.00 to 8.00

NNC(=O)c1nc(C2CC2)cnc1Nc1cccc(C2=CCOCC2)c1OCC(F)(F)F [Example 1-8, 6-cyclopropyl-3-((3-(3,6-dihydro-2H-pyran-4-yl)-2-(2,2,2-trifluoroethoxy)phenyl)amino)pyrazine-2-carbohydrazide]
GI50 [1]: 100 to 1000 nM | pIC50 (recombinant human DHODH): 7.00 to 8.00

CS(=O)(=O)NC(=O)c1cc(C2CC2)cnc1Nc1cc(F)cc(C2CCOCC2)c1OCC(F)(F)F [Example 3-42]
GI50 [1]: < 100 nM | pIC50 (recombinant human DHODH): > 8.00

CCS(=O)(=O)NC(=O)c1nc(C2CC2)cnc1Nc1cccc(C2=CCOCC2)c1OCC(F)(F)F [Example 3-17]
GI50 [1]: ≥ 1000 nM | pIC50 (recombinant human DHODH): 7.00 to 8.00

C[C@H](Oc1c(Nc2ccc(C3CC3)cc2C(=O)NS(C)(=O)=O)ccnc1C1=CCOCC1)C(F)(F)F [Example 3-64]
GI50 [1]: 100 to 1000 nM | pIC50 (recombinant human DHODH): 7.00 to 8.00

Cc1ccc(-c2cccc(Nc3ncc(C4CC4)nc3C(=O)O)c2OCC(F)(F)F)c(C)n1 [Example 1-4, 6-cyclopropyl-3-((3-(2,6-dimethylpyridin-3-yl)-2-(2,2,2-trifluoroethoxy)phenyl)amino)pyrazine-2-carboxylic acid]
GI50 [1]: 100 to 1000 nM | pIC50 (recombinant human DHODH): 7.00 to 8.00

C[C@H](Oc1c(Nc2ncc(C3CC3)nc2C(=O)NS(N)(=O)=O)cccc1C1CCOCC1)C(F)(F)F [Example 3-7]
GI50 [1]: 100 to 1000 nM | pIC50 (recombinant human DHODH): > 8.00

CCCc1c(Nc2ncc(C3CC3)nc2C(=O)NS(N)(=O)=O)cccc1C1CCOCC1 [Example 3-26]
GI50 [1]: < 100 nM | pIC50 (recombinant human DHODH): > 8.00

CCOc1c(C2=CCOCC2)ccc(F)c1Nc1ncc(C2CC2)cc1C(=O)NS(C)(=O)=O [Example 3-59]
GI50 [1]: ≥ 1000 nM | pIC50 (recombinant human DHODH): 7.00 to 8.00

N#Cc1ccc(-c2cc(F)cc(Nc3ncc(C4CC4)nc3C(=O)O)c2OC(F)F)cc1 [Example 2-12]
GI50 [1]: 100 to 1000 nM | pIC50 (recombinant human DHODH): 7.00 to 8.00
